From a melting point compilation (Tetko et al.; mined from patent text by program, amines drawn as free bases though some values may be those of a salt) come the findings set out here.

Residues, ends and D or L forms follow the SMILES beside them. *: point of attachment. For = O=C*

By melting point is commonly meant the temperature of the solid-liquid transition. With `O=C(O)c1cc(N2CCCCC2)ccc1[N+](=O)[O-]`, the melting point was in the range of 130 to 140 °C.

`CCN(CC)C1=C2N=c3cc(Cl)ccc3=C2Oc2ccccc2N1Cc1ccccc1` displayed a melting point of 132 to 134 °C. `FC(F)(F)Sc1cc(C(F)(F)F)[nH]c1-c1ccc(Cl)cc1` displayed a melting point of 53 to 55 °C. As for `COc1ccc(CCNC(=O)N(OC(C)=O)C(C)(C)C)cc1OC`, the melting point fell in the range of 123 to 125 °C.

`CC(C)(C)c1cc(I)c2oncc2c1` registered a melting point of 106 to 109 °C. Consider `CCN(CC)CCn1nc2c3c(c(NCCN4C(=O)c5ccccc5C4=O)ccc31)Sc1cc(OC)ccc1-2`, for which the melting point fell in the range of 171 to 172 °C. On to `CON=CCNC(=O)c1c(I)cccc1C(=O)Nc1ccc(C(F)(F)C(F)(F)F)cc1C`, for which the melting point came to 110 °C. With `COc1ccc2c(c1)CC(C)CC2=O` (stereo not drawn), the melting point fell in the range of 70.5 to 70.6 °C. As for `Nc1cccc(Sc2ccc3c(c2)OCC(=O)N3)c1`, the figure is 181 to 182 °C. The compound `O=C1CC(c2ccc(Cl)cc2Cl)Cc2[nH]c3ccc(Cl)cc3c(=O)c21` (stereo not drawn) came in with a melting point of 308 to 310 °C. As for `COc1cc2c(cc1OC)CN(CCCCNC(=O)c1cc(C)ccc1OCCF)CC2`, the melting point lay in the range of 131 to 133 °C. As to `CC(C)(C)OC(=O)CON=C(C(=O)O)c1cccc(NC=O)n1`, the melting point is 162 to 168 °C. The compound `Cc1cc(N(C)c2ccn(-c3ccccc3)n2)cc(C)c1O` registered a melting point of 139 to 140 °C. The compound `O=P(c1ccccc1)(c1ccccc1)c1nc2ccccc2nc1P(=O)(c1ccccc1)c1ccccc1` yielded a melting point of 258 to 272 °C. In turn, `Oc1cccc2ccc(C=Cc3ccccc3)nc12` displayed a melting point of 70 to 72 °C.

Regarding `CCOC(=O)c1c(C)cc2nc(C)n(-c3ccccc3C)c(=O)c2c1C`, the melting point was in the range of 129 to 130 °C. Regarding `CN(C)c1ccc(-c2cc(-c3ccnc4c(C(=O)c5cccs5)cnn34)ccc2F)cc1`, the melting point was 219 to 221 °C. With `CC1(C)C(=O)N(Cc2ccccc2Cl)OC1O` (stereo not drawn), the melting point lay within 122 to 126 °C. The compound `CCCc1c(COc2ccc(-c3nnn(CCCN(C)C)n3)cc2)ccc(C(C)=O)c1O` returned a melting point of 89 to 91 °C. `COC(=O)c1ccc(C(=O)c2cccnc2)cc1` had a melting point of 144 to 146 °C.

As to `COc1ccc(CC(C)NCC(O)c2cccc(Cl)c2)cc1F` (stereo not drawn), the melting point lay within 93 to 95 °C. Then `NC(=S)c1ccc(C(=O)NCc2ccc(N3CC(C(=O)O)OC3=O)cc2)cc1` (stereo not drawn), with 105 to 110 °C. As for `Fc1ccc(-c2n[nH]c(-c3ccncc3)c2-c2ccncc2)cc1`, the figure is 304 °C; as for `CCCOc1ccc(S(=O)(=O)N2CCN(CC)CC2)cc1-c1nc2cc3nc[nH]c3cc2c(=O)[nH]1`, 194 to 196 °C; as for `O=C(O)C1(C(=O)Nc2ccc(F)cc2F)CC1`, 160 to 163 °C. As for `CCCN(CCC)Cc1nnc(-c2ncn3c2[C@@H]2CCCN2C(=O)c2c(Cl)cccc2-3)o1`, the melting point was 158 to 160 °C. Take `Cc1cc(C)c(O)c(-c2cc(C(C)C)ccc2C(C)C)c1`: the melting point was determined as 179 °C.

The compound `CCOc1c(OC)cccc1C(=O)Nc1ccc(C(=O)OC)cc1C(=O)OC` registered a melting point of 113 to 115 °C.

For the compound `CC/C(=C(\c1ccc(/C=C/C(=O)O)cc1)c1ccc(OC(=O)CCC(F)(F)F)cc1)c1ccccc1`, the melting point was 162 to 163 °C.

Turning to `Fc1ccc(-c2cc3ncnc(Nc4ccc5[nH]ccc5c4)c3s2)cc1`, the melting point is 193 to 205 °C. As for `C#CCc1c(C)nc(N)[nH]c1=O`, the figure is 245 to 249 °C; as for `CC(C)(C(=O)O)n1c(=O)[nH]c2ccc(F)cc2c1=O`, 249 to 253 °C; as for `COc1ccc(/C=C/C(=O)C#CC(=O)O)cc1`, 98 to 100 °C. Compound `CCN1C(=O)C(C(=O)Nc2ccc(Cl)cc2Oc2ccc(Cl)cc2)C(=O)N(C)C1=S` (stereo not drawn) registered a melting point of 250 to 251 °C. `CCC(=O)N(C(=O)CC)c1cc2c(cc1C)N(C(=O)CC)c1ccc(N(C)C)cc1N2C(=O)CC`: the melting point was 198 to 199 °C. With `c1ccc(OCCSCc2nnc(-c3ccc(OCc4cccnc4)cc3)o2)cc1`, the melting point lay within 111 to 112 °C. `CC/C(=C\C=C\C(O)(C(F)(F)F)C(F)(F)F)c1ccc(COc2ccc(CO)c(CO)c2)s1` registered a melting point of 113 to 114 °C. As for `CC(C)OCCOc1ccc(-c2ccc3c(c2)C=C(C(=O)Nc2ccc(CN(C)C4CCOCC4)cc2)CCS3(=O)=O)cc1`, the figure is 214 to 215 °C; as for `COc1c(Cc2ccccc2)cc(C(=O)c2cccs2)c2ccccc12`, 111 to 113 °C; as for `CC(C)=C1C(=O)N(c2ccc(N)cc2)C(=O)/C1=C(\C)c1cc(-c2ccccc2)sc1C`, 193 to 195 °C.

`CC(C(=O)O)c1ccc2c(=O)c3ccccc3ccc2c1` (stereo not drawn) came in with a melting point of 108 to 110 °C. In turn, `CN(C)C=NS(=O)(=O)c1cc(CCNC(=O)C(F)(F)F)ccc1O` yielded a melting point of 160 to 161 °C. As for `O=C(/C=C/c1ccc(CN2CCCC2)cc1)Nc1ccc(Br)cc1`, the figure is 184 to 186 °C; as for `C=C(c1ccc(C(C)C)cc1)c1c(C)c(NC(=O)CCCC)c(C)c2c1OCC2`, 172 to 173 °C; as for `COCCOc1c(S(C)(=O)=O)ccc(C(=O)c2cnn(C)c2O)c1C`, 112 to 114 °C. Then `COc1ccc2nc(CO)n(C)c2n1`, with 138 to 140 °C; and `N#CC(C#N)C(c1cccc2ccccc12)c1cccc2ccccc12`, with 179 to 181 °C; and `CC(C)(CO)COc1ccc(NC(=O)c2csc3c2CCCC3)cc1C#N`, with 148 to 150 °C. The compound `FC(F)(F)c1ccc(CN2CC3(COc4ccc(-c5cccnc5)cc43)c3ccccc32)o1` (stereo not drawn) displayed a melting point of 98 to 100 °C.

In turn, `Cn1c(C(=O)N=[N+]=[N-])c(-c2ccccc2)c2cc([N+](=O)[O-])ccc21` came in with a melting point of 262 to 264 °C. As to `COC(=O)C(Cc1ccccc1)NC(=O)C(CC(=O)O)NC=O` (stereo not drawn) (For-Asp-Phe-OMe; configuration not given here), the melting point turned out to be 124 °C. With `COc1ccc(C(=O)c2c(CBr)n(C(C)=O)c(=O)n2C(C)=O)cc1`, the melting point lay within 135 to 136 °C.

`CCCN1C=CSC1S(=O)(=O)N=NC(=O)Nc1nc(OC)cc(OC)n1` (stereo not drawn): the melting point was 166 to 167 °C. Regarding `CC(C)=CCn1c(N2CCC(N)C2)nc2c1c(=O)n(C)c(=O)n2C` (stereo not drawn), the melting point came out at 119 °C. For `O=C(CCl)NCC1(c2ccc(Cl)c(Cl)c2)CCC1`, the melting point lay within 104 to 105 °C. As for `COC(C(=O)O)c1ccc2c(c1)C(C)(C)CCC2(C)C` (racemic), the figure is 135 to 136 °C; as for `Nc1cccc2c1CNC2=O`, 196 to 197 °C. On to `O=c1[nH]c(=O)n(CCCCCCl)c2ccccc12`, for which the melting point was 162 to 163 °C. In turn, `CC(C)Oc1ccc2ccc(C(N)=O)c(OC(C)C)c2c1` had a melting point of 145 to 146 °C. The compound `Cc1ccc(S(=O)(=O)Oc2ccc3c4c(nn3CCNCCO)-c3cnccc3C(=O)c24)cc1` yielded a melting point of 131 to 133 °C. `COCC1OC(n2c(Cl)nc3cc(Cl)c(Cl)cc32)C(O)C1O` (stereo not drawn) came in with a melting point of 104 to 105 °C. The compound `Clc1cc(Nc2ccccc2)c(Cl)nn1` showed a melting point of 137 to 139 °C. In turn, `CC(C)(O)c1ccc(CNC(=O)c2cccnc2Oc2ccc3nsnc3c2)c(F)c1` registered a melting point of 124 to 125 °C.

As for `NS(=O)(=O)c1cc(NC(=O)c2cnn3c(C(F)(F)F)cc(-c4ccc(Cl)cc4)nc23)c(Cl)s1`, the melting point came out at 329 °C. `CCCCCCCCCC(O)Cc1ccc(O)c(O)c1` (stereo not drawn) had a melting point of 56 to 58 °C. Compound `CCc1cc(O)n2nc(CC)c(C)c2n1` yielded a melting point of 287 °C.

On to `CCOc1ccc(CCCCC=CC(=O)O)cc1`, for which the melting point lay within 62 to 63 °C. Regarding `COc1cc(OCCN(C)C)ccc1/C=C/c1cc(/C=C/c2ccc3cc[nH]c3c2)[nH]n1`, the melting point is 109 to 112 °C.

`O=S(=O)(c1nc2c([nH]1)-c1ccc(F)cc1Oc1ccccc1-2)C(F)(F)C(F)F` yielded a melting point of 171 to 173 °C. In the case of `O=C(O)c1ncn2c1Cn1ccnc1-c1sccc1-2`, the melting point is 225 to 227 °C. With `Cc1c(C)c2c(c(C)c1NC(=O)CC(C)(C)C)C(O)(c1ccccn1)C(C)(C)O2` (stereo not drawn), the melting point fell in the range of 205 to 207 °C.

`NS(=O)(=O)c1ccc(NN=C2C(=O)Nc3ccc(C(=O)NCc4ccncc4)cc32)cc1` gave a melting point of 211 to 215 °C. For `CCCc1nc2c(C)cc(C)nc2n1Cc1ccc(-c2ccccc2-c2c(O)c(=O)c2=O)cc1`, the melting point was 182 °C. Regarding `N#Cc1cc(C2CCCO2)nn1-c1ccc(NC(=O)c2ccncc2F)cc1` (stereo not drawn), the melting point is 160 to 162 °C. On to `COCCOC(=O)N1c2cc(Cl)ccc2NC(=O)[C@@H]1C`, for which the melting point lay within 93 to 94 °C. As for `CCCC(=O)c1cnc2c(OC)cccc2c1Nc1ccc(OC(=O)C(C)C)cc1C`, the figure is 123 to 125 °C. Turning to `COc1cc(CCN2CCC[C@H](C(C#N)(c3ccccc3)c3ccccc3)C2)ccc1O`, the melting point lay in the range of 159 to 160 °C. Compound `O=S1(=O)c2cccc3cccc(c23)N1CCCCN1CC=C(c2ccc(Cl)cc2)CC1` gave a melting point of 12 °C. As for `O=c1oc2ccccc2n1CCCCl`, the melting point fell in the range of 62 to 64 °C. Then `CN(CCc1ccc(Nc2ncc3c(n2)-c2ccccc2C(c2ccc(Cl)c(Cl)c2)C3)cc1)C1CCCCC1` (stereo not drawn), with 130 to 131 °C; and `Cn1ncc(/C=C/C(=O)Nc2ccc(CS(C)(=O)=O)cc2)c1-c1ccc(F)cc1`, with 251 to 252 °C; and `Cc1ccc(Cl)c(Nc2ccccc2C(N)=S)c1Cl`, with 134 to 136 °C. `COC(=O)c1sc2c(c1N)c1ccccc1c(=O)n2-c1ccccc1`: the melting point was above 270 °C.

As for `CC1(C(=O)C(CC2CCCCC2)n2cncn2)COCOC1` (stereo not drawn), the melting point was 68 to 71 °C. `NS(=O)(=O)c1cc2cc(OCC(=O)O)ccc2s1` showed a melting point of 200 to 203 °C. `COc1ccc(C[C@H](NC(=O)OCc2ccccc2)C(=O)O)cc1` yielded a melting point of 106 to 108 °C. The compound `O=C1NCCc2c(-c3cccc(Cl)c3)[nH]c3cccc1c23` displayed a melting point of 147 to 149 °C. For `CC(C)c1nc(CCO)n(C)c1Sc1cc(Cl)cc(Cl)c1`, the melting point lay within 177 to 178 °C.
